Data from the NIST ThermoML archive (doi:10.1021/acs.jced.9b00209).

Tests used:
[1] = 101.33 kPa, Liquid, Pycnometric method
[2] = Boiling temperature at pressure P; conditions: Liquid, Ebulliometric method (Recirculating still)
[3] = molar heat capacity at saturation pressure; conditions: Liquid, Vacuum adiabatic calorimetry

CC(C)CCOC(=O)C(C)O (configuration not stated) [isopentyl 2-hydroxypropanoate]
Conditions	Boiling temperature at pressure P [°C]	mass density [kg/m3]	molar heat capacity [J/K/mol]
[1], 288.15 K	–	976	–
[1], 293.65 K	–	973.5	–
[1], 298.15 K	–	969.5	–
[1], 303.15 K	–	965	–
[1], 308.15 K	–	960.6	–
[1], 315.65 K	–	954.9	–
[1], 320.15 K	–	950	–
[1], 326.15 K	–	945.3	–
[1], 331.65 K	–	939.8	–
[1], 336.15 K	–	937.8	–
[1], 341.45 K	–	931.1	–
[1], 346.15 K	–	928	–
[1], 350.95 K	–	922.7	–
[1], 355.65 K	–	917	–
[1], 361.65 K	–	913.2	–
[1], 367.15 K	–	908	–
[1], 373.15 K	–	903	–
[1], 378.45 K	–	898.3	–
[1], 383.45 K	–	893	–
[1], 390.65 K	–	887.5	–
[1], 397.15 K	–	883.1	–
[1], 404.35 K	–	876.4	–
[1], 410.85 K	–	869.6	–
[1], 417.05 K	–	864.7	–
[1], 420.45 K	–	861	–
[1], 424.75 K	–	854.7	–
[1], 428.15 K	–	854.2	–
[1], 434.25 K	–	848.9	–
[1], 441.75 K	–	842.2	–
[1], 448.55 K	–	836	–
[1], 453.15 K	–	832	–
[2], 4.5 kPa	101.44	–	–
[2], 8.6 kPa	118.64	–	–
[2], 13.8 kPa	131.41	–	–
[2], 18.4 kPa	139.2	–	–
[2], 22.8 kPa	146.61	–	–
[2], 27.9 kPa	153.00	–	–
[2], 33.2 kPa	158.40	–	–
[2], 38.6 kPa	163.80	–	–
[2], 42.9 kPa	168.23	–	–
[2], 48.2 kPa	171.66	–	–
[2], 52.3 kPa	174.60	–	–
[2], 57.6 kPa	178.1	–	–
[2], 62.3 kPa	182.00	–	–
[2], 69.2 kPa	186.00	–	–
[2], 72.7 kPa	188.32	–	–
[2], 77 kPa	190.7	–	–
[2], 82 kPa	192.98	–	–
[2], 87.2 kPa	195.31	–	–
[2], 91.4 kPa	197.64	–	–
[2], 95.7 kPa	199.20	–	–
[2], 100.7 kPa	201.00	–	–
[2], 110.3 kPa	205.41	–	–
[3], 288.15 K	–	–	360.71
[3], 293.65 K	–	–	362.52
[3], 298.15 K	–	–	364.02
[3], 303.55 K	–	–	365.85
[3], 308.95 K	–	–	367.71
[3], 313.65 K	–	–	369.34
[3], 318.45 K	–	–	371.04
[3], 323.65 K	–	–	372.9
[3], 328.25 K	–	–	374.56
[3], 333.85 K	–	–	376.6
[3], 338.75 K	–	–	378.4
[3], 343.05 K	–	–	380
[3], 348.55 K	–	–	382.06
[3], 353.15 K	–	–	383.8
[3], 358.45 K	–	–	385.81
[3], 363.35 K	–	–	387.69
[3], 368.05 K	–	–	389.51
[3], 373.75 K	–	–	391.72
[3], 378.85 K	–	–	393.72
[3], 383.35 K	–	–	395.5
[3], 388.65 K	–	–	397.6
[3], 393.25 K	–	–	399.44
[3], 398.45 K	–	–	401.54
[3], 403.15 K	–	–	403.44
[3], 408.65 K	–	–	405.69
[3], 413.15 K	–	–	407.54
[3], 418.85 K	–	–	409.91
[3], 423.95 K	–	–	412.04
[3], 428.45 K	–	–	413.94
[3], 433.15 K	–	–	415.95
[3], 438.55 K	–	–	418.27
[3], 443.65 K	–	–	420.49
[3], 448.15 K	–	–	422.47
[3], 453.65 K	–	–	424.92
